Data reported in patent EP0587374A2, “Sulfated sterol glycosides and their use against viral infections” (VIROSTAT (NA) NV, priority 1992, dated 1994).
Where two headings read alike, the source gives them in different places.

Procedure: The test animal received food and water without restriction.
On Tuesdays and Fridays blood samples were taken for blood chemistry, haematology and the measurement of trough plasma levels of the drug. These samples were taken prior to the administration of the drug, but at intervals as indicated in Figure 2 (which is a histogram of blood concentration levels against time) and Table 5. Blood samples were also taken 5, 10 and 15 minutes after drug adminstration in order to assess the peak plasma concentrations achieved. After 30 days the baboon was sacrificed and tissue samples were collected for testing.

[1] = haematology summary, following initial drug administration

CC[C@H](CC[C@@H](C)[C@H]1CC[C@H]2[C@@H]3CC=C4C[C@@H](O[C@@H]5O[C@H](COS(=O)(=O)O)[C@@H](OS(=O)(=O)O)[C@H](OS(=O)(=O)O)[C@H]5OS(=O)(=O)O)CC[C@]4(C)[C@H]3CC[C@]12C)C(C)C [BSSG-(SO₄⁻)₄, β-Sitosteryl β-D-glucoside tetra-sulphate]
behavioral characteristics (5 mg/kg i.v. daily, period of treatment): remained unchanged
BSSG-³⁵(SO₄⁻)₄ PLASMA LEVEL (5 mg/kg i.v. daily, sample 3-4-92 (Fri: Pre IV), trough): 56.0 µg/mL
BSSG-³⁵(SO₄⁻)₄ PLASMA LEVEL (5 mg/kg i.v. daily, sample 7-4-92 (Tues: Pre IV), trough): 71.0 µg/mL
BSSG-³⁵(SO₄⁻)₄ PLASMA LEVEL (5 mg/kg i.v. daily, sample 10-4-92 (Fri: 10 min Post IV), peak): 149.5 µg/mL
BSSG-³⁵(SO₄⁻)₄ PLASMA LEVEL (5 mg/kg i.v. daily, sample 10-4-92 (Fri: Pre IV), trough): 52.5 µg/mL
BSSG-³⁵(SO₄⁻)₄ PLASMA LEVEL (5 mg/kg i.v. daily, sample 14-4-92 (Tues: 15 min Post IV), peak): 149.7 µg/mL
BSSG-³⁵(SO₄⁻)₄ PLASMA LEVEL (5 mg/kg i.v. daily, sample 14-4-92 (Tues: Pre IV), trough): 65.0 µg/mL
BSSG-³⁵(SO₄⁻)₄ PLASMA LEVEL (5 mg/kg i.v. daily, sample 15-4-92 (Wed: 4 hr Post IV)): 72.5 µg/mL
BSSG-³⁵(SO₄⁻)₄ PLASMA LEVEL (5 mg/kg i.v. daily, sample 27-3-92 (Fri: Pre IV), trough): 60.3 µg/mL
BSSG-³⁵(SO₄⁻)₄ PLASMA LEVEL (5 mg/kg i.v. daily, sample 31-3-92 (Tues: Pre IV), trough): 59.0 µg/mL
24-hour post-dose-trough plasma levels (5 mg/kg i.v. daily, subsequent samples of the study period): > 50 µg/mL
BSSG-³⁵(SO₄⁻)₄ PLASMA LEVEL (100 mg (5 mg/kg) i.v. daily Mon-Fri from 16-3-92, sample 24-3-92 (Tues: Pre IV), trough): 33.8 µg/mL
autopsy findings (after 30 days of 5 mg/kg i.v. daily): no organ discoloration or change in organ texture
chemical pathology, overall conclusion (blood chemistry twice a week, Table 6): no direct proof that the changes occurring in time were due to direct toxicity of the substance
Haemoglobin (Hb) (general decrease during drug administration from base-line 14.8): 12.5 g/dL
haematocrit (Hct) (general decrease during drug administration from base-line 43.4): 36.9%
monocyte count (haematology summary, after the second week of drug administration, still present at the end): Absolute monocytopaenia
total white cell count (haematology summary, following drug administration): slight increase in total white cell count but within normal range
lymphocyte count [1]: transient absolute lymphocytosis
platelet count [1]: transient decrease in platelet count (but still within normal range)
haemolysis (Hb and Hct trend) (haematology summary, supported by biochemical and bone marrow iron findings): slight haemolysis
FREE HAEMOGLOBIN CONCENTRATION (plasma, 5 mg/kg i.v. daily, sample 7-4-92 (Tues: Pre IV), before treatment 0.004, 0.005): 0.005 mg/dL
plasma levels of the drug sustained (single daily i.v. injection of 5 mg/kg body mass over a month long period): 50 to 170 µg/mL
histological findings (tissue samples after 30 days of 5 mg/kg i.v. daily): not severe and were fairly non-specific
bone marrow cellularity (trephine biopsy after 30 days, slightly lower than that of an adult man): approximately 40%
major routes of excretion (³⁵S isotope in urine samples and faeces, high levels in the bile): via the kidney and the liver
